# Reference: patent US20190017029A1, “Generation of Expandable Cardiovascular Progenitor Cells” (The J. David Gladstone Institutes, a testament trust …, priority 2016, published 2019)
# B1: BMP4: member of the group of bone morphogenic proteins and a ventral mesoderm inducer (protein, UniProt P12644 293-408, looked up)
# Bone morphogenetic protein 4: SPKHHSQRARKKNKNCRRHSLYVDFSDVGWNDWIVAPPGYQAFYCHGDCPFPLADHLNSTNHAIVQTLVNSVNSSIPKACCVPTELSAISMLYLDEYDKVVLKNYQEMVVEGCGCR
# Assays:
# Assay type in all cases: cell-based, mouse
# [1] = tested on: ieCPCs; assay: Cardiac (CM) differentiation of ieCPCs, cTnT expression; conditions: 20 ng/ml BMP4 or 5 μM IWP2 versus basal differentiation medium
# Experimental: For cardiac differentiation, ieCPCs were passaged onto 96-well matrigel-coated plates at a density of […] cells/cm^2 and cultured in serum-free differentiation (SFD) medium for 10 days. IWP2 (5 μM) was added to SFD medium during the first six days to increase the yield of cardiomyocytes (CMs) in the functional characterization assays.
# Differentiation efficiency of each cell type was calculated with qPCR, flow cytometry, and/or an In Cell Analyzer 2000 (General Electric Healthcare).
# After washing cells three times with PBS, the cells were incubated with isotype-matched Alexa Fluorescence-conjugated secondary antibodies (Invitrogen) for 1 hour at room temperature. […] The expression of cTnT (measured by multiplying staining intensity and area) and Isl1 or α-SMA (percentage in total cells) were monitored and analyzed by an IN Cell Analyzer 2000.
# To detect intracellular antigens, dissociated cells were fixed and permeabilized with a BD Cytofix/Cytoperm™ Fixation/Permeabilization Kit (BD Biosciences), and then incubated with antibodies for cTnT (MS-295-P1 Thermo Scientific; 1:200) and α-SMA (A-2547, Sigma-Aldrich; 1:200) at 4° C. overnight. After three washes, cells were incubated with isotype-matched Alexa Fluorescence-conjugated secondary antibodies (Invitrogen) for 1 hour at room temperature and detected by an LSR II Flow Cytometer (BD Biosciences).
# [2] = tested on: Flk-1^+/PdgfR-α^+ cells; assay: Flow cytometry of Flk-1+/PdgfR-α+ cells during CASD cardiac reprogramming of 2nd MEFs treated with BACS; conditions: NU6140 4 μM along with BACS from day 8; day 14
# Experimental: A Cell-Activation and Signaling-Directed (CASD) system-based cardiac reprogramming was conducted using methods described by Efe et al. (2011). Briefly, 2nd MEFs at passage 3 were seeded onto geltrex (Gibco)-coated plates at a density of 2.5×10^4 cells/well of a 12-well plate in MEF medium (day −2). Doxycycline (DOX; 2 μg/ml, Sigma-Aldrich) was added into the medium one day later (day −1) and the cells were cultured for another day. Medium was then changed to reprogramming medium (knockout DMEM supplemented with 5% knockout serum replacement (KSR), 15% embryonic stem cell (ESC)-qualified FBS, 1× Glutamax, 1×NEAA, 0.1 mM β-mercaptoethanol (β-ME), 1% ESC-qualified nucleosides (Millipore), 0.5 μM Jak inhibitor 1 (JI1; Millipore), and 2 μg/ml DOX) at day 0. This medium was renewed every 2 days. […]
# On day 8, the medium was switched to ieCPC basal medium (Advanced DMEM/F12: Neural basal (1:1) supplemented with 1×N2, 1×B27 without Vitamin A, 1× Glutamax, 1×NEAA, 0.05% bovine serum albumin (BSA), and 0.1 mM β-ME) supplemented with BACS (5 ng/ml BMP4, 10 ng/ml Activin A, 3 μM CHIR99021, and 2 μM SU5402 (Tocris Bioscience)). JI1 (0.5 μM) was included to suppress the establishment of pluripotency until the cells were ready for purification at day 13. […]
# [3] = tested on: ieCPC-CMs; assay: Beating frequency and Ca2+ transients in ieCPC-CMs, pharmacological studies
# Experimental: Contracting cardiomyocytes derived from ieCPCs (ieCPC-CMs) were dispersed by first treating cells with Collagenase B for 5-10 min and then with Accutase for 5 min. Dissociated cells were replated onto matrigel-coated coverslips (Warner Instruments). After visible beating was reconfirmed, the coverslips were loaded with the Ca^2+-sensitive fluorescent indicator Fluo-4 (see below), and then placed in a superfusion bath (Warner Instruments) on a Nikon TiS inverted microscope equipped with a microfluorometer (lonOptix). Superfusion solutions were warmed to 30° C. with a superfusion system and heated perfusion pencil (ValveLink, AutoMate Scientific).
# The ieCPC-CMs on coverslips were loaded with Fluo-4 AM in a 1:10 mixture of the indicator dissolved in dry dimethyl sulfoxide at 5 mM, plus Powerload concentrate (Life Technologies). This mixture was diluted 100-fold into extracellular Tyrode's solution and substituted for culture medium in dishes containing coverslips (final indicator concentration, 5 μM). […] Fluo-4 fluorescence transients were recorded with a standard filter set with excitation and emission centered on 480 nm and 535 nm, respectively (Chroma Technology).
# Fluorescence was obtained from contracting cells plus a cell-free border using a cell-framing adaptor (IonOptix). Background fluorescence, recorded after removing the cell(s) from the field of view, was subtracted from all recordings. […] Background-corrected fluorescence transients were expressed relative to the diastolic fluorescence between spontaneous APs and were considered to reflect underlying changes in intracellular Ca^2+ concentration. Unless stated, reagents were from Sigma Chem. Co. Pharmacological studies were conducted on the spontaneous fluorescence transients of non-patch-clamped myocytes, and, to maximize coverslip usage, pharmacological agents were applied locally (only to the cell or cluster of interest) with the perfusion pencil.
# [4] = tested on: ieCPC-SMCs; assay: Contractile assay of smooth muscle cells in vitro; conditions: 100 μM carbachol; seen in primary SMCs, not in undifferentiated ieCPCs
# Experimental: ieCPCs, ieCPC-SMCs, and primary SMCs were treated with carbachol (100 μM, Sigma-Aldrich) and monitored with a Zeiss Axio Observer microscope in a time-lapse manner at 10-minute intervals for 1 hour. Cell-surface areas were then calculated with ImageJ software.
molecule,measurement,setting,value
Cc1ccc2nc(NC(=O)CSc3nc4c(c(=O)n3-c3ccccc3)SCC4)sc2c1 [IWP2],cardiac differentiation of ieCPCs (cTnT),[1],dramatically enhanced
CCN(CC)C(=O)c1ccc(Nc2nc(OCC3CCCCC3)c3[nH]cnc3n2)cc1 [NU6140],ratio of Flk-1+/PdgfR-α+ cells,[2],dramatically decreased
Cn1c(=O)c2c(ncn2C)n(C)c1=O [caffeine],Ca2+ transients (release from sarcoplasmic reticulum),[3]; 10 mM caffeine,elicited large Ca^2+ transients
C[N+](C)(C)CCOC(N)=O [carbachol],effect on the isoproterenol-induced increase of frequency,[3]; 10 μM carbachol,blocked
same,contraction of ieCPC-SMCs,[4],induced contraction
CC(C)NCC(O)c1ccc(O)c(O)c1 (stereo not shown) [isoproterenol],frequency of cell contraction and spontaneous Ca2+ transients,[3]; 1 μM isoproterenol,significantly increased
B1,cardiac differentiation of ieCPCs (cTnT),[1],significantly impaired
